This assay relates to RNase. The experiment in a line: Smart-seq2 (SS2) cDNA library generation and sequencing from 100 pg mouse RNA with the agent replacing recombinant RNase inhibitor in lysis buffer. It counts as biochemical. Particulars: for sustained RNA stability during cDNA library generation: SS2 protocol for bulk RNA; for quality of the sequencing data compared with standard Smart-seq2 utilizing recombinant RNAse inhibitor (TaKaRa): agent used in its optimal range; for optimal range of alternative inhibitor (cDNA size distribution and yield similar to standard Smart-seq2): concentration in 1× Smart-seq2 lysis buffer, 100 pg mouse RNA. The method, then:
We started by systematically testing ranges of PVSA concentrations in the scRNAseq protocol Smart-seq2 (SS2) (5), which provides full-length read coverage across transcripts, enabling evaluation of polymerase processivity. We prepared lysis buffer containing 0-600 μg/mL of PVSA (resulting in 0-270 μg/mL in the following first-strand reaction) and 100 pg spiked mouse RNA, performed SS2 library amplification, and evaluated resulting cDNA by capillary electrophoresis (Methods).
To examine the information yield and quality of PVSA-generated RNA-seq libraries, we sequenced SS2 libraries generated in presence of PVSA or RI (TaKaRa) and downsampled the resulting reads to allow even comparison (Methods). We analyzed library quality metrics in terms of genomic and transcriptomic mappability, base substitution rates, insertion and deletions (indels), likelihood of mismatches within the read, and average indel length.
Bulk RNA was extracted from cultured mouse tail tip fibroblasts using TRIzol (Invitrogen). For all bulk RNAseq experiments 100 pg of RNA was used as input, if is not otherwise specified, and was added to 96-well plates containing either Smart-seq2 or Smart-seq3 standard lysis buffer or lysis buffer with varying concentrations of polyvinyl sulfonic acid (Merck, cat no. 278424). Smart-seq2 lysis buffer composition was 0.1% Triton X-100, 2.5 mM dNTP/each, […] oligo-dT (5′-[…]30VN-3′), and 4 U recombinant inhibitor (TaKaRa) or PVSA of the concentration specified for each condition; total buffer volume 4.5 ul. Smart-seq3 lysis buffer composition was 0.1% Triton X-100, 10% PEG 8000, 1 mM dNTP/each, and 1 uM Smart-seq3 oligo-dT (5′-biotin-[…] T30VN-3′), and 1 U recombinant inhibitor (TaKaRa) or PVSA of the concentration specified for each condition; total buffer volume 2 ul. For single-cell experiments, cultured HEK293FT, spleen, or liver cells in 0.5% BSA in PBS were sorted into 96 well plates containing lysis buffer using an SH800S (Sony). Single cell sorted plates were briefly centrifuged and kept at −80° C. until they were further processed. Plates containing lysis buffer and input material were then processed according to the Smart seq2 and Smart-seq3 protocols (Picelli, S. et al., 2014 and Hagemann-Jensen, M. et al., 2020), except without addition of recombinant inhibitor in the first-strand reaction mix in reactions where PVSA was used. Smart-seq2 cDNA library generation: Cell were lysed at 72° C. for 3 min in a Bioer Life ECO thermocycler and placed on ice prior to first-strand synthesis. The following reverse transcriptase reaction contained 1× Superscript II buffer, 5 mM DTT, 1M betaine, 10 mM MgCl2, 1 uM Smart-seq2 TSO (5′-[…]rGrG+G-3′), 10 U Superscript II, and 10 U recombinant inhibitor (TaKaRa) for samples containing biological inhibitor; total reaction volume 10 ul. RT thermocycles were 42° C. for 90 min, followed by 10 cycles of 42° C. for 2 min and 50° C. for 2 min. The following cDNA amplification reaction contained 1× KAPA HiFi HotStart Ready Mix and 80 nM ISPCR primers (5′-[…]-3′); total reaction volume 25 ul. Thermocycles for Smart-seq2 cDNA amplification were 98° C. for 3 min, followed by either 18 (bulk), 20 (HEK), 21 (liver) or 22 (spleen) cycles of 98° C. for 20 sec, 67° C. for 15 sec, and 72° C. for 6 min, followed by a final incubation at 72° C. for 5 min. Smart-seq3 cDNA library generation: Cell were lysed at 72° C. for 10 min and placed on ice prior to first-strand synthesis.

The values below come from US20260139245A1, “METHODS AND USES OF RIBONUCLEASE INHIBITORS” (Sequrna AB, priority 2022, published 2026).

Where “and” joins values, the source holds several entries; their conditions need not be identical. Identical values can stand only once.

In the case of `O=S(=O)(O)CCN1CCOCC1` [MES, 2-(N-morpholino)ethanesulfonic acid], the “sustained RNA stability during cDNA library generation” value was “did”; the “quality of the sequencing data compared with standard Smart-seq2 utilizing recombinant RNAse inhibitor (TaKaRa)” value is on record as “on par”; the “optimal range of alternative inhibitor (cDNA size distribution and yield similar to standard Smart-seq2)” value (from here on “optimal range of alternative inhibitor”) lay within 4000 to 12000 µg/mL. For the same compound, the “optimal concentration of alternative inhibitor” value (Smart-seq2 lysis buffer, 100 pg mouse fibroblast RNA) fell in the range of 6 to 8 mg/mL.

For `C=CP(=O)(O)O` [VPA, vinylphosphonic acid, reference compound], the “sustained RNA stability during cDNA library generation” value is on record as “did not sustain RNA stability during cDNA library generation”.

`C=CS(=O)(=O)O` [VSA, Vinylsulfonic acid]: the “sustained RNA stability during cDNA library generation” value is “did”; the “quality of the sequencing data compared with standard Smart-seq2 utilizing recombinant RNAse inhibitor (TaKaRa)” value is “on par”; the “optimal range of alternative inhibitor” value was in the range of 500 to 2000 µg/mL.

On to Dextran sulfate, for which the “sustained RNA stability during cDNA library generation” value is listed as “did”; the “quality of the sequencing data compared with standard Smart-seq2 utilizing recombinant RNAse inhibitor (TaKaRa)” value is “on par”; the “optimal range of alternative inhibitor” value was 1 to 2.5 µg/mL and 1.5 to 2.5 µg/mL.

For Fucoidan, the “quality of the sequencing data compared with standard Smart-seq2 utilizing recombinant RNAse inhibitor (TaKaRa)” value was “on par”; the “optimal range of alternative inhibitor” value is 5 to 20 µg/mL.

Heparin [reference compound]: the “sustained RNA stability during cDNA library generation” value is given as “did”; the “quality of the sequencing data compared with standard Smart-seq2 utilizing recombinant RNAse inhibitor (TaKaRa)” value is “on par”; the “optimal range of alternative inhibitor” value lay in the range of 2 to 10 µg/mL.

Turning to Sodium alginate, the “sustained RNA stability during cDNA library generation” value is “did”; the “quality of the sequencing data compared with standard Smart-seq2 utilizing recombinant RNAse inhibitor (TaKaRa)” value is given as “on par”; the “optimal range of alternative inhibitor” value is 200 to 400 µg/mL and 100 to 400 µg/mL.
